The structures appear in SMILES notation.

The test addresses T1, Arginase (ARG1 enzyme) (Homo sapiens, UniProt P05089).
T1 construct: made in house; host or cells: Escherichia coli
T1 sequence (P05089 1-322): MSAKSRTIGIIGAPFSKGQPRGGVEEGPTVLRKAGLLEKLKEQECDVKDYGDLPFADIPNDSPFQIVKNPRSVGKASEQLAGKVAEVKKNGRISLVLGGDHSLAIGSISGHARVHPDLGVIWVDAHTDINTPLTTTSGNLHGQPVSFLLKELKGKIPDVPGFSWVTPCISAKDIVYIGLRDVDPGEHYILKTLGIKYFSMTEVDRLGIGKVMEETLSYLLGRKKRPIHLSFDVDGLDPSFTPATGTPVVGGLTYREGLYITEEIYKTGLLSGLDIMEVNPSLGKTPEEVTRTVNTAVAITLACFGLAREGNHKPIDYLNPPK
Description: Arginase Thioornithine Generating Assay (TOGA). It is filed as biochemical. As to conditions: 1.88 nM arginase, thioarginine substrate, fluorescence readout. As for the experimental part: Arginase Thioornithine Generating Assay (TOGA)
Compounds were serially diluted in ten 3-fold steps in DMSO starting from 10 mM DMSO stocks. Compound dilutions or DMSO alone were then dispensed from the dilution plate into a Greiner black 384-well assay plate (catalog #781086) using an Echo 555 acoustic liquid handler (Labcyte).
Arginase protein was recombinantly expressed in Escherichia coli. Purified protein was then diluted in assay buffer (50 mM Tris pH 7.5, 50 mM NaCl, 1 mM manganese chloride, 0.05% bovine serum albumin to obtain a final Arginase concentration of 1.88 nM. Arginase solution (20 μL) or buffer alone (20 μL) were dispensed to wells of the assay plate using a BioRAPTR liquid dispenser (Beckman Coulter). Assay plates containing compound and ARG1 enzyme were incubated at room temperature for 30 minutes. Afterwards, 5 μL of 2.5 mM thioarginine (Cayman Chemicals) in assay buffer were added to each well of the assay plate using a BioRAPTR liquid dispenser. Plates were incubated at room temperature for 60 minutes and reactions were quenched by addition of 15 μL of […] 7-Diethylamine-3-(4-maleimidophenyl)-4-methylcoumarin (Sigma Chemical) in 70% ethanol. Plates were briefly shaken to mix and the fluorescence was measured in an Spectramax plate reader (Molecular Devices) with a 410 nm excitation wavelength and an 490 nm emission wavelength.
Potencies were calculated by […] to the four parameter logistic IC50 equation.
As usually defined, the IC50 is the concentration needed to halve the response being measured. In turn, `O=C(O)C1C(CCCB(O)O)CCN1CCN1CCCCC1` (stereo not shown) [Example 10, 3-(3-boronopropyl)-1-(2-(piperidin-1-yl)ethyl)pyrrolidine-2-carboxylic acid] came in with a concentration for half-maximal inhibition (IC50) of 12.9 µM. This counts as double-digit micromolar.
For the molecule `NC1(C(=O)O)CNCC1(CO)CCCB(O)O` (single isomer, unassigned) [Example 94B], the IC50 was found to be 0.94 µM.
The molecule `CN(C)CC[C@]1(C(=O)O)NCC[C@H]1CCCB(O)O` [Example 54, (2S,3R)-3-(3-boronopropyl)-2-(2-(dimethylamino)ethyl)pyrrolidine-2-carboxylic acid] showed an IC50 of 0.0315 µM. This IC50 is about 30-fold lower than that of the molecule before.
In the case of `CN[C@H](C(=O)N[C@H]1CN[C@H](C(=O)O)[C@@H]1CCCB(O)O)C(C)C` [Example 43, (2S,3R,4R)-3-(3-boronopropyl)-4-((S)-3-methyl-2-(methylamino)butanamido)pyrrolidine-2-carboxylic acid] it was 0.00298 µM; in that of `CNC[C@H]1CN[C@H](C(=O)O)[C@]1(C)CCCB(O)O` [Example 79], 0.0663 µM; in that of `O=C(O)C[C@@]1(CCCB(O)O)[C@H](O)CN[C@@H]1C(=O)O` [Example 90, (2S,3R,4S)-3-(3-boronopropyl)-3-(carboxymethyl)-4-hydroxypyrrolidine-2-carboxylic acid], 2.91 µM.
On to `O=C(O)[C@H]1NC[C@@H](O)[C@H]1CCCB(O)O` [Example 20B, (3S,4S) 3-[3-(dihydroxyboranyl)propyl]-4-hydroxy-L-proline], for which the half-inhibitory concentration (IC50) was more than 10 µM.
`C[C@@H]1C[C@@H](CCCB(O)O)[C@@H](C(=O)O)N1` [Example 64, (2S,3R,5R)-3-(3-boronopropyl)-5-methylpyrrolidine-2-carboxylic acid] yielded a half-maximal inhibitory concentration (IC50) of 0.00662 µM.
`C[C@H](N)C(=O)N(C)[C@H]1CN[C@H](C(=O)O)[C@@H]1CCCB(O)O` [Example 51, (2S,3S,4R)-4-((S)-2-amino-N-methylpropanamido)-3-(3-boronopropyl)pyrrolidine-2-carboxylic acid] came in with an IC50 of 0.985 µM.
`O=C(O)[C@]1(CO)NCC[C@H]1CCCB(O)O` (single isomer, unassigned) [Example 59B] registered a 50% inhibitory concentration (IC50) of 0.133 µM.
Take `O=C(O)[C@@]1(CCN2CCCC2)NCC[C@H]1CCCB(O)O` [Example 55]: the IC50 came out at 0.0159 µM. This IC50 is about 8.4-fold lower than that of the molecule before.
As for `CC(C)C[C@H](N)C(=O)N[C@H]1CN[C@H](C(=O)O)[C@@H]1CCCB(O)O` [Example 42, (2S,3R,4R)-4-((S)-2-amino-4-methylpentanamido)-3-(3-boronopropyl)pyrrolidine-2-carboxylic acid], half-maximal inhibition (IC50) required 0.00158 µM. This IC50 lies about 10-fold lower than the previous one.
`NC[C@@]1(CCCB(O)O)CCN[C@@H]1C(=O)O` [Example 85, (2S,3R)-3-(aminomethyl)-3-(3-boronopropyl)pyrrolidine-2-carboxylic acid] returned an IC50 of 0.00718 µM.
Consider `CN(C)C[C@]1(C(=O)O)NCC[C@H]1CCCB(O)O` [Example 58, (2R,3R)-3-(3-boronopropyl)-2-((dimethylamino)methyl)pyrrolidine-2-carboxylic acid], for which the half-inhibitory concentration (IC50) was more than 10 µM.
In the case of `CC(C)(O)[C@H](N)C(=O)N[C@H]1CN[C@H](C(=O)O)[C@@H]1CCCB(O)O` [Example 39, (2S,3R,4R)-4-((S)-2-amino-3-hydroxy-3-methylbutanamido)-3-(3-boronopropyl)pyrrolidine-2-carboxylic acid] it was 0.0102 µM.
Molecule `O=C(O)C1CNCC1CCCB(O)O` (single isomer, unassigned) [Example 21D, 4-[3-(dihydroxyboranyl)propyl]pyrrolidine-3-carboxylic acid] came in with an IC50 of 1.52 µM. Compared with the last molecule, the IC50 is about 150-fold higher.
Molecule `O=C(N[C@H]1CN[C@H](C(=O)O)[C@@H]1CCCB(O)O)[C@@H]1CCCN1` [Example 49, (2S,3R,4R)-3-(3-boronopropyl)-4-((S)-pyrrolidine-2-carboxamido)pyrrolidine-2-carboxylic acid] displayed an IC50 of 0.013 µM. Compared with the last molecule, the IC50 is about 120-fold lower.
Consider `O=C(O)C1CC(CCB(O)O)CCN1` (stereo not shown) [Example 4, 4-[2-(dihydroxyboranyl)ethyl]piperidinyl-2-carboxylic acid], for which 19.8 µM corresponded to half-maximal inhibition (IC50). This IC50 is about 1500-fold higher than that of the molecule before.
In the case of `O=C(O)[C@@]1(CCN2CCC2)NCC[C@H]1CCCB(O)O` [Example 56], the IC50 was 0.0208 µM. This IC50 is about 950-fold lower than that of the molecule before.
The molecule `NC[C@]1(C(=O)O)NCC[C@H]1CCCB(O)O` (relative stereo) [Example 57A, 2-(aminomethyl)-3-(3-boronopropyl)pyrrolidine-2-carboxylic acid] registered an IC50 of 0.112 µM.
Consider `CC[C@H](C)[C@H](N)C(=O)N[C@H]1CN[C@H](C(=O)O)[C@@H]1CCCB(O)O` [Example 45, (2S,3R,4R)-4-((2S,3S)-2-amino-3-methylpentanamido)-3-(3-boronopropyl)pyrrolidine-2-carboxylic acid], for which it took 0.002 µM to reach half-maximal inhibition (IC50).
In the case of `N[C@@]1(C(=O)O)CNC[C@@]1(CO)CCCB(O)O` [Example 94C] it was more than 10 µM; in that of `CC(=O)N[C@H]1CN[C@H](C(=O)O)[C@@H]1CCCB(O)O` [Example 50, (2S,3R,4R)-4-acetamido-3-(3-boronopropyl)pyrrolidine-2-carboxylic acid], 0.247 µM.
Molecule `O=C(O)[C@]1(CCN2CCCCC2)CC(CCB(O)O)CN1` (stereo partly shown) [Example 19, 4-[2-(dihydroxyboranyl)ethyl]-2-[2-(piperidin-1-yl)ethyl]proline] gave a 50% inhibitory concentration (IC50) of 5.37 µM.
Molecule `O=C(O)C1CNCC1CCCB(O)O` (single isomer, unassigned) [Example 21C, 4-[3-(dihydroxyboranyl)propyl]pyrrolidine-3-carboxylic acid] registered an IC50 of more than 10 µM.
In the case of `N[C@H](C(=O)N[C@H]1CN[C@H](C(=O)O)[C@@H]1CCCB(O)O)C1Cc2ccccc2C1` [Example 48, (2S,3R,4R)-4-((S)-2-amino-2-(2,3-dihydro-1H-inden-2-yl)acetamido)-3-(3-boronopropyl)pyrrolidine-2-carboxylic acid] it was 0.002 µM.
For `CN[C@H]1CN[C@H](C(=O)O)[C@@H]1CCCB(O)O` [Example 29, (2S,3R,4R)-3-(3-boronopropyl)-4-(methylamino)pyrrolidine-2-carboxylic acid], the IC50 is 0.0201 µM.
`CN(C)C[C@H]1CN[C@H](C(=O)O)[C@]1(C)CCCB(O)O` [Example 78, (2S,3R,4R)-3-(3-boronopropyl)-4-((dimethylamino)methyl)-3-methylpyrrolidine-2-carboxylic acid] displayed an IC50 of more than 10 µM.
`O=C(O)[C@H]1NCCC[C@H]1CCCB(O)O` (single isomer, unassigned) [Example 1B] yielded an IC50 of 0.377 µM.
For the molecule `O=C(O)[C@@H]1NCC[C@H]1CCCB(O)O` [Example 15A, (3R)-3-[3-(dihydroxyboranyl)propyl]-D-proline], the IC50 was more than 10 µM.
In the case of `O=C(O)[C@H]1NC[C@@]1(CO)CCCB(O)O` [Example 65, (2S,3S)-3-(3-boronopropyl)-3-(hydroxymethyl)azetidine-2-carboxylic acid] it was 0.013 µM; in that of `C[C@H]1N[C@H](C(=O)O)[C@](C)(CCCB(O)O)[C@@H]1O` [Example 74B], more than 10 µM; in that of `O=C(O)C1CNCC1CCCB(O)O` (single isomer, unassigned) [Example 21A, 4-[3-(dihydroxyboranyl)propyl]pyrrolidine-3-carboxylic acid], more than 10 µM.
Turning to `C[C@@]1(CCCB(O)O)CCN[C@]1(C)C(=O)O` [Example 72, (2S,3R)-3-(3-boronopropyl)-2,3-dimethylpyrrolidine-2-carboxylic acid], the IC50 came out at 0.119 µM.

The values are drawn from patent US12215116B2, “Arginase inhibitors and methods of use” (Merck Sharp & Dohme LLC, priority 2018, dated 2025).
